Experimental data: ChEMBL document CHEMBL1157653, “Gentisides A and B, two new neuritogenic compounds from the traditional Chinese medicine Gentiana rigescens Franch” (Bioorg Med Chem, 2010)
Activity calls are given as the source filed them. The rule behind the calls is not given here.

Columns and labels:
[1] = tested on: PC-12; experiment: Induction of neuritogenic activity in rat PC12 cells assessed as long neurite outgrowths at 1 to 30 uM after 48 hrs; type: functional, cell-based
[2] = tested on: PC-12; experiment: Induction of neuritogenic activity in rat PC12 cells assessed as long neurite outgrowths after 48 hrs; type: functional, cell-based
[3] = tested on: PC-12; experiment: Cytotoxicity against rat PC12 cells at 100 uM after 48 hrs; type: cell-based; details: pc-12, 48 h
[4] = tested on: PC-12; experiment: Cytotoxicity against rat PC12 cells at 1 to 30 uM after 48 hrs; type: cell-based; details: pc-12, 48 h
[5] = tested on: PC-12; experiment: Potentiation of NGF-induced neuritogenic activity in rat PC12 cells assessed as neurite outgrowths at 1 to 30 uM after 48 hrs; type: functional, cell-based
[6] = tested on: PC-12; experiment: Induction of neuritogenic activity in rat PC12 cells assessed as appearance of long multipolar and bipolar neurite outgrowths at 30 uM after 48 hrs by phase contrast microscopy; type: functional, cell-based
[7] = tested on: PC-12; experiment: Induction of neuritogenic activity in rat PC12 cells assessed as long neurite outgrowths at 30 uM after 48 hrs; type: functional
[8] = tested on: PC-12; experiment: Induction of neuritogenic activity in rat PC12 cells assessed as long neurite outgrowths at 100 uM after 48 hrs; type: functional, cell-based

O=C(O)c1cccc(O)c1O
Activity [1]: inactive

CC(C)CCCCCCCCCCCCCCCCCCCOC(=O)c1cccc(O)c1O [GENTISIDE A]
Activity [2]: Dose-dependent effect
Activity [3]: Toxic
Activity [4]: Non-toxic
Activity [5]: inactive
Activity [6]: Active
Activity [7]: 82%
Activity [8]: Active

CC[C@H](C)CCCCCCCCCCCCCCCCCCCOC(=O)c1cccc(O)c1O [GENTISIDE B]
Activity [2]: Dose-dependent effect
Activity [3]: Toxic
Activity [4]: Non-toxic
Activity [5]: inactive
Activity [6]: Active
Activity [7]: 87%
Activity [8]: Active
